# Test results from PubChem BioAssay (NCI).
#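 A five-concentration, 48-hour dose response in 96-well plates underlies each endpoint, interpolated linearly between surrounding concentrations. TGI denotes the concentration required for complete inhibition of growth.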
# Columns and labels:
# Assay in all cases: inhibition of tumour cell growth, NCI panel, 48 h
# [1] = tested on: BT-549 breast
# [2] = tested on: 786-0 renal
# [3] = tested on: SF-539 CNS
# [4] = tested on: KM12 colon
# [5] = tested on: UACC-62 melanoma
# [6] = tested on: OVCAR-5 ovarian
# [7] = tested on: MDA-MB-435
# [8] = tested on: CCRF-CEM leukemia
# [9] = tested on: SNB-19 CNS
# [10] = tested on: A549 NSCLC
# [11] = tested on: MDA-N
# [12] = tested on: OVCAR-4 ovarian
# [13] = tested on: SK-MEL-5 melanoma
# [14] = tested on: COLO 205 colon
# [15] = tested on: SK-OV-3 ovarian
# [16] = tested on: NCI-H460 lung
# [17] = tested on: MOLT-4 leukemia
# [18] = tested on: K-562 leukemia
# [19] = tested on: T-47D breast
# [20] = tested on: HCT-116 colon
# [21] = tested on: HS 578T breast
# [22] = tested on: HOP-92 NSCLC
# [23] = tested on: NCI-H522 lung
# [24] = tested on: ACHN renal
# [25] = tested on: SK-MEL-2 melanoma
# [26] = tested on: SW-620 colon
# [27] = tested on: U251 CNS
# [28] = tested on: RXF 393 renal
# [29] = tested on: HL-60(TB) leukemia
# [30] = tested on: IGROV1 ovarian
# [31] = tested on: TK-10 renal
# [32] = tested on: UACC-257 melanoma
# [33] = tested on: OVCAR-8 ovarian
# [34] = tested on: EKVX NSCLC
# [35] = tested on: CAKI-1 renal
# [36] = tested on: SNB-75 CNS
# [37] = tested on: SN12C renal
# [38] = tested on: SF-295 CNS
# [39] = tested on: NCI/ADR-RES ovarian
# [40] = tested on: OVCAR-3 ovarian
# [41] = tested on: LOX IMVI melanoma
# [42] = tested on: PC-3 prostate
# [43] = tested on: SK-MEL-28 melanoma
# [44] = tested on: HOP-62 NSCLC
# [45] = tested on: HCT-15 colon
# [46] = tested on: MDA-MB-231 breast
# [47] = tested on: RPMI-8226 leukemia
# [48] = tested on: NCI-H226 lung
# [49] = tested on: MCF7 breast
# [50] = tested on: HT29 colon
# [51] = tested on: DU-145 prostate
# [52] = tested on: MALME-3M melanoma
# [53] = tested on: M14 melanoma
# [54] = tested on: SR leukemia
# [55] = tested on: HCC-2998 colon
# [56] = tested on: SF-268 CNS
# [57] = tested on: A498 renal
# [58] = tested on: UO-31 renal
# [59] = tested on: NCI-H23 lung
smiles,measurement,setting,value
O=C(NCCCCCCO)c1cccc2cc3ccccc3nc12,TGI,[1],33.2 µM
same,TGI,[2],36.2 µM
same,TGI,[3],33.7 µM
same,TGI,[4],33.9 µM
same,TGI,[5],35.2 µM
same,TGI,[6],38.9 µM
same,TGI,[7],47.3 µM
same,TGI,[8],> 100 µM
same,TGI,[9],32.1 µM
same,TGI,[10],31.5 µM
same,TGI,[11],12.9 µM
same,TGI,[12],66.2 µM
same,TGI,[13],32.9 µM
same,TGI,[14],25.3 µM
same,TGI,[15],47.4 µM
same,TGI,[16],39 µM
same,TGI,[17],58.5 µM
same,TGI,[18],> 100 µM
same,TGI,[19],26 µM
same,TGI,[20],33.1 µM
same,TGI,[21],71.9 µM
same,TGI,[22],> 100 µM
same,TGI,[23],28.8 µM
same,TGI,[24],39.2 µM
same,TGI,[25],30.1 µM
same,TGI,[26],> 100 µM
same,TGI,[27],> 100 µM
same,TGI,[28],37.7 µM
same,TGI,[29],74.8 µM
same,TGI,[30],35.7 µM
same,TGI,[31],34.6 µM
same,TGI,[32],33.9 µM
same,TGI,[33],> 100 µM
same,TGI,[34],32.8 µM
same,TGI,[35],36.1 µM
same,TGI,[36],37.3 µM
same,TGI,[37],49.5 µM
same,TGI,[38],32.8 µM
same,TGI,[39],> 100 µM
same,TGI,[40],36.5 µM
same,TGI,[41],34.7 µM
same,TGI,[42],31.9 µM
same,TGI,[43],42.5 µM
same,TGI,[44],32.9 µM
same,TGI,[45],48.6 µM
same,TGI,[46],40 µM
same,TGI,[47],47.3 µM
same,TGI,[48],35.3 µM
same,TGI,[49],39.3 µM
same,TGI,[50],36.6 µM
same,TGI,[51],32 µM
Cn1ccc2c(c1=O)C(=O)OC2(C)C,TGI,[1],> 100 µM
same,TGI,[52],> 100 µM
same,TGI,[2],> 100 µM
same,TGI,[3],> 100 µM
same,TGI,[4],> 100 µM
same,TGI,[5],> 100 µM
same,TGI,[6],> 100 µM
same,TGI,[53],> 100 µM
same,TGI,[54],> 100 µM
same,TGI,[8],> 100 µM
same,TGI,[9],> 100 µM
same,TGI,[10],> 100 µM
same,TGI,[11],> 100 µM
same,TGI,[12],> 100 µM
same,TGI,[55],> 100 µM
same,TGI,[13],> 100 µM
same,TGI,[14],> 100 µM
same,TGI,[15],> 100 µM
same,TGI,[16],> 100 µM
same,TGI,[17],> 100 µM
same,TGI,[18],> 100 µM
same,TGI,[19],> 100 µM
same,TGI,[20],> 100 µM
same,TGI,[21],> 100 µM
same,TGI,[24],> 100 µM
same,TGI,[26],> 100 µM
same,TGI,[56],> 100 µM
same,TGI,[27],> 100 µM
same,TGI,[28],> 100 µM
same,TGI,[29],> 100 µM
same,TGI,[57],> 100 µM
same,TGI,[30],> 100 µM
same,TGI,[31],> 100 µM
same,TGI,[32],> 100 µM
same,TGI,[33],> 100 µM
same,TGI,[34],> 100 µM
same,TGI,[35],> 100 µM
same,TGI,[36],> 100 µM
same,TGI,[37],> 100 µM
same,TGI,[38],> 100 µM
same,TGI,[39],> 100 µM
same,TGI,[40],> 100 µM
same,TGI,[41],> 100 µM
same,TGI,[42],> 100 µM
same,TGI,[43],> 100 µM
same,TGI,[44],> 100 µM
same,TGI,[45],> 100 µM
same,TGI,[46],> 100 µM
same,TGI,[47],> 100 µM
same,TGI,[48],> 100 µM
same,TGI,[58],> 100 µM
same,TGI,[49],> 100 µM
same,TGI,[59],> 100 µM
same,TGI,[50],> 100 µM
same,TGI,[51],> 100 µM
